# Source: paper PMC13266999, “Designing Antibiotics with Inherent Resistance to Efflux as a Strategy to Revive Discovery against Multidrug-Resistant Pathogens” (Journal of Medicinal Chemistry, 2026)
# “And” between values parts separate entries of the source, which are not always exact repeats. Equal entries are not always repeated. Where two headings read alike, the source gives them in different places.
# Assays:
# [1] = system: Acinetobacter baumannii; test: MIC (microbroth dilution); format: cell-based
# Method in brief: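 Microbroth dilution in tryptic soy broth; Streptococcus spp. in cation-adjusted Mueller Hinton broth with 2.5% lysed horse blood, inocula from overnight stationary-phase cultures. MIC is lowest concentration without visible growth, OD600 read. Parallel MICs run with 30 μg/mL polymyxin B nonapeptide (final) as outer-membrane permeabilizer.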
# [2] = system: K. pneumoniae; test: MIC (microbroth dilution); format: cell-based, Klebsiella pneumoniae; conditions: Klebsiella pneumoniae, read-out: MIC
# Method in brief: (§1)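 Broth microdilution MICs, defined as lowest compound level without visible growth (OD600 read), on bacteria grown overnight to stationary phase then diluted. Twofold compound dilutions; some wells also received PMBN, final 30 μg/mL, to permeabilize the outer membrane.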
# [3] = system: E. coli; test: MIC (microbroth dilution); format: cell-based; conditions: Escherichia coli
# Method in brief: as §1
# [4] = biological target: T1, GyrA S84L mutant DNA gyrase (Staphylococcus aureus, UniProt P0A0K8+P20831, S84L); test: DNA gyrase supercoiling inhibition assay; format: biochemical, S. aureus
# T1 construct: purchased Inspiralis Ltd. (Norwich, UK)
# Method: (§2) Gyrase inhibition was determined through biochemical assay kits from Inspiralis Ltd. (Norwich, UK), according to manufacturer’s instructions, and as described previously. Briefly, 1U of enzyme was incubated with 0.5 μg of relaxed […] DNA in the presence of compound in 1% DMSO for 30 min at 37 °C. A control reaction contained no compound but still contained 1% DMSO. The reactions were stopped through Stop Buffer addition and the DNA separated through addition of chloroform/iso-amyl alcohol (24;1). Samples were run on a 1% agarose gel at 75 V for 2 h, which was then stained with 1 μg/mL ethidium bromide and visualized using a NuGenius gel imager (Syngene). The intensity of the supercoiled DNA band was quantified using Syngene software, and the inhibition of the supercoiling of the DNA by the compounds was calculated.
# [5] = biological target: T2, WT DNA gyrase (Staphylococcus aureus, UniProt P0A0K8+P20831); test: DNA gyrase supercoiling inhibition assay; format: biochemical, S. aureus
# T2 construct: purchased Inspiralis Ltd. (Norwich, UK)
# Method: as §2
# [6] = system: WI38; test: Toxicity in nontumor eukaryotic cell line; format: cell-based; conditions: 100 μM, the highest concentration tested
# [7] = biological target: CYP2C19 (Homo sapiens, UniProt P33261); test: CYP inhibition; conditions: HLM, omeprazole substrate, 10 μM
# Sequence of CYP2C19 (P33261 whole entry): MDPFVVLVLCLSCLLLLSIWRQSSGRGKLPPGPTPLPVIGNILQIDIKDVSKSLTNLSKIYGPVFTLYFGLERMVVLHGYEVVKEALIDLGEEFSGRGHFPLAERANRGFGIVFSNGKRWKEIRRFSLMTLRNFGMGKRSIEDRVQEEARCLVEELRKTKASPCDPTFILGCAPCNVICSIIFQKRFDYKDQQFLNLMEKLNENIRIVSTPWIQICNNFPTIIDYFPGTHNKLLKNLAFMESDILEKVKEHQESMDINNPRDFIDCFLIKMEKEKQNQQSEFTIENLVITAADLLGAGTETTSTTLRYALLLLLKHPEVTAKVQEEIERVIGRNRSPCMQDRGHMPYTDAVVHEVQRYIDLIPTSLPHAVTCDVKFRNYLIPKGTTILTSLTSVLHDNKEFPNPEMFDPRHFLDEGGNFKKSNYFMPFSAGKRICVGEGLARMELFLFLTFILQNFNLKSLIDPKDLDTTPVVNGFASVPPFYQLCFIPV
# Method: Cytochrome P450 inhibition was assessed in vitro using human recombinant enzymes in microsomal preparations. […] Enzyme activity was quantified by monitoring formation of substrate-specific metabolites, and percent inhibition was calculated relative to vehicle control.
# [8] = Maximum tolerated dose study; conditions: animals N 1-3;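 also: male ICR mice given oral doses under a stepwise escalation scheme to find the highest tolerated dose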
smiles,measurement,setting,value
"C[C@H]1COc2c(N3CC[C@@H](Nc4ncccn4)C3)c(F)cc3c(=O)c(C(=O)O)cn1c23 [Compound 46, (S)-9-Fluoro-3-methyl-7-oxo-10-((R)-3-(pyrimidin-2-ylamino)pyrrolidin-1-yl)-2,3-dihydro-7H-[1,4]oxazino[2,3,4-ij]quinoline-6-carboxylic acid]",MIC,"[1]; Acinetobacter baumannii, 86, oxa23, read-out: MIC",8 µg/mL
same,MIC,"[1]; Acinetobacter baumannii, 96, oxa23, read-out: MIC",4 µg/mL
same,MIC,"[1]; Acinetobacter baumannii, 113, oxa23, read-out: MIC",4 µg/mL
same,MIC,"[1]; Acinetobacter baumannii, A118, read-out: MIC",≤ 0.06 µg/mL
same,MIC,"[1]; Acinetobacter baumannii, A318, read-out: MIC",8 µg/mL
same,MIC,"[1]; Acinetobacter baumannii, A319, read-out: MIC",8 µg/mL
same,MIC,"[1]; Acinetobacter baumannii, A600 colR, read-out: MIC",4 µg/mL
same,MIC,"[1]; Acinetobacter baumannii, A601 colS, read-out: MIC",≤ 0.06 µg/mL
same,MIC,"[1]; Acinetobacter baumannii, AB01335 adeG183::T26",4 µg/mL
same,MIC,"[1]; Acinetobacter baumannii, AB5075-UW, read-out: MIC",4 µg/mL
same,MIC,"[1]; Acinetobacter baumannii, AB05215 adeS132::T26",4 µg/mL
same,MIC,"[1]; Acinetobacter baumannii, AB05218 adeS141::T26",4 µg/mL
same,MIC,"[1]; Acinetobacter baumannii, AB05219 adeR103::T26",4 µg/mL
same,MIC,"[1]; Acinetobacter baumannii, AB05222 adeR160::T101",4 µg/mL
same,MIC,"[1]; Acinetobacter baumannii, AB05226 adeA165::T26",4 µg/mL
same,MIC,"[1]; Acinetobacter baumannii, AB05227 adeA138::T26",2 µg/mL
same,MIC,"[1]; Acinetobacter baumannii, AB05228 adeB150::T26",1 µg/mL
same,MIC,"[1]; Acinetobacter baumannii, AB05230 adeB181::T26",1 µg/mL
same,MIC,"[1]; Acinetobacter baumannii, ATCC17978, ATCC 17978, read-out: MIC",≤ 0.25 µg/mL
same,MIC,"[1]; Acinetobacter baumannii, BAA1709, BAA-1709, read-out: MIC",0.125 µg/mL
same,MIC,"[1]; Acinetobacter baumannii, BAA1710, BAA-1710 (AYE), read-out: MIC",4 µg/mL
same,MIC,"[1]; Acinetobacter baumannii, BAA2093, BAA-2093, read-out: MIC",0.03 to 0.06 µg/mL
same,MIC,"[1]; Acinetobacter baumannii, NCTC10303, NCTC 10303, read-out: MIC",≤ 0.06 µg/mL
same,MIC,"[1]; Acinetobacter baumannii, NCTC12156, NCTC 12156, read-out: MIC",0.125 µg/mL
same,MIC,"[1]; Acinetobacter baumannii, NCTC13302, NCTC 13302, oxa24, read-out: MIC",4 µg/mL
same,MIC,"[1]; Acinetobacter baumannii, NCTC13424, NCTC 13424, oxa23, read-out: MIC",> 64 µg/mL
same,MIC,"[1]; Acinetobacter baumannii, T strain, read-out: MIC",8 µg/mL
same,MIC,"[1]; Acinetobacter baumannii, UKA1, oxa23, read-out: MIC",4 µg/mL
same,MIC,"[1]; Acinetobacter baumannii, UKA2, Low resistance, read-out: MIC",8 µg/mL
same,MIC,"[1]; Acinetobacter baumannii, UKA9, read-out: MIC",≤ 0.06 µg/mL
same,MIC,"[1]; Acinetobacter baumannii, UKA12, oxa23, read-out: MIC",2 µg/mL
same,MIC,"[1]; Acinetobacter baumannii, UKA13, oxa23, read-out: MIC",2 µg/mL
same,MIC,"[1]; Acinetobacter baumannii, UKA15, oxa23, read-out: MIC",1 µg/mL
same,MIC,"[1]; Acinetobacter baumannii, UKA19, read-out: MIC",0.25 µg/mL
same,MIC,"[1]; Acinetobacter baumannii, W1, read-out: MIC",4 µg/mL
same,MIC,[2]; M6,1 to 2 µg/mL
same,MIC,"[2]; NCTC13368, NCTC 13368",8 µg/mL
same,MIC,[2]; TW3,1 µg/mL
same,MIC,[3]; 319238/UR,16 µg/mL
same,MIC,[3]; LEC006,0.125 µg/mL
same,MIC,[3]; LEC007,0.125 µg/mL
same,MIC,[3]; LEC077,4 µg/mL
same,MIC,[3]; LEC081,2 µg/mL
same,MIC,"[3]; NCTC10418, NCTC 10418",≤ 0.06 µg/mL
same,MIC,"[3]; NCTC11954, NCTC 11954",0.125 µg/mL
same,MIC,"[3]; NCTC12241, NCTC 12241",0.06 µg/mL
same,MIC,"[3]; NCTC12923, NCTC 12923",0.25 to 0.5 µg/mL
same,IC50,[4],95.3 µM
same,IC50,[5],7.92 µM
same,toxicity in WI38,[6],nontoxic
same,CYP2C19 inhibition,[7],0.6%
same,B.W.,"[8]; PO 100 mg/kg, 72 hrs after final dose, 100 mg/kg",25 and 27
same,B.W.,"[8]; PO 100 mg/kg, Pre-dose, 100 mg/kg",24 and 25
same,B.W.,"[8]; PO 200 mg/kg, 72 hrs after final dose, 200 mg/kg",26 and 27
same,B.W.,"[8]; PO 200 mg/kg, Pre-dose, 200 mg/kg",24 and 23
same,B.W.,"[8]; PO 400 mg/kg, 72 hrs after final dose, 400 mg/kg",26 and 22 and 24
same,B.W.,"[8]; PO 400 mg/kg, Pre-dose, 400 mg/kg",21 and 20 and 22
